Assay results from publication PMC9252919, “Controlled masking and targeted release of redox-cycling ortho-quinones via a C–C bond-cleaving 1,6-elimination” (Nature Chemistry, 2022).

B1: Gem-IgG1: native IgG1 antibody containing the variable region of gemtuzumab (antibody, chains of the INN, looked up, V domains shown)
VH: EVQLVQSGAEVKKPGSSVKVSCKASGYTITDSNIHWVRQAPGQSLEWIGYIYPYNGGTDYNQKFKNRATLTVDNPTNTAYMELSSLRSEDTAFYYCVNGNPWLAYWGQGTLVTVSS
VL: DIQLTQSPSTLSASVGDRVTITCRASESLDNYGIRFLTWFQQKPGKAPKLLMYAASNQGSGVPSRFSGSGSGTEFTLTISSLQPDDFATYYCQQTKEVPWSFGQGTKVEVK
modifications: IgG1
notes: native IgG1 antibody containing the variable region of gemtuzumab

Key:
CD33+ HL-60 cells = experiment: Viability assay with small-molecule prodrugs and ADCs, HL-60; assay type: cell-based, human
Experimental: (§1) For assays assessing cytotoxicity of β-lapachone versus small-molecule prodrugs, antibodies and ADCs, suspension cells were plated into 24-well plates at a density of 2.5 × 10^5 cells ml^−1 in 240 µl. Stocks of ADC or antibody in PBS were normalized to 12.5 µM. Serial dilutions of compound were made up in PBS. Then, 60 µl of each stock of either PBS or compound in PBS was added to the cells to achieve the desired final concentration. After the specified incubation time, toxicity was assessed by counting of live cells using the trypan blue exclusion method with a Countess II Automated Cell Counter (ThermoFisher Scientific) according to the manufacturer’s instructions. Cell viability was determined by dividing the average live cell number of treated wells by the average live cell number for control wells treated with PBS only. IC50 values were calculated using GraphPad Prism software. Note: for the assay performed over 96 h, 5% human serum was added to media instead of 10% fetal bovine serum, to limit non-specific antibody internalisation. This had little effect on ADC toxicity.

HL-60 cells = experiment: Lysosomal deacidification and inhibition assay; assay type: cell-based, human; settings: HL-60
Experimental: Assays to assess the effect of lysosomal activity on prodrugs were performed as follows: HL-60 cells were plated into 96-well plates at a concentration of 2.5 × 10^5 cells ml^−1 in 180 µl media. Cells were treated with 10 µl of a stock of NH4Cl in PBS (to obtain an in-plate concentration of 3 or 30 mM), 10 µl of a dilution of a DMSO stock of E64d in PBS (to obtain an in-plate concentration of 30 μM), PBS only or a dilution of DMSO in PBS. Cells were incubated for 30 min. Following this, 10 µl of a stock of test compound made by dilution of a DMSO stock into media was added. DMSO was present in-plate at a maximum of 0.2%. Cells were incubated overnight for 16 h. Following incubation, media was replaced with media containing CellTiter-Blue (Promega) in 1:4 dilution and the plates were incubated for 6 h. The fluorescence of the plates was recorded (excitation, 555 nm; emission, 585 nm; MiniMax i3x Reader, Molecular Devices). Cell viability was calculated by division of the fluorescence intensity of treated wells by that of the average fluorescence intensity of the relevant negative control wells.

AML cell line MOLM-13 = experiment: Viability assay with small-molecule prodrugs, MOLM-13; assay type: cell-based; settings: MOLM-13
Experimental: as §1

HEL cells = experiment: Viability assay with ADCs, HEL, trypan blue exclusion; assay type: cell-based, human; settings: 96 h
Experimental: as §1

| Molecule | IC50 relative to 1 in HL-60 (CD33+ HL-60 cells) [fold] | toxicity after lysosomal deacidification (NH4Cl) or inhibition (E64d) (HL-60 cells) | IC50 relative to 1 in MOLM-13 (AML cell line MOLM-13) [fold] | toxicity to HEL at 2.5 µM (HEL cells; 2.5 µM) | in vitro toxicity against HEL (HEL cells; live cell count) |
| --- | --- | --- | --- | --- | --- |
| CC(C)C(NC(=O)OCc1ccccc1)C(=O)NC(CCCNC(N)=O)C(=O)Nc1ccc(CC2(O)C(=O)C3=C(OC(C)(C)CC3)c3ccccc32)cc1 (centres unmarked) [Compound 26] | 10 | less toxic | 10 | – | – |
| B1 | – | – | – | no toxicity | no apparent toxicity |
